Test system: T1, β-glucuronidase from P. purpurogenum Li-3 (PGUS)
T1 construct: native enzyme from mycelia of the fungus grown on GL; crude extract for kinetics, or ammonium sulfate and DEAE-cellulose
Experiment: HPLC of GAMG formed; double reciprocal plot
Assay type: biochemical, Talaromyces purpureogenus
Settings: control without ISL; crude β-glucuronidase solution, 2 h, 40 °C, sodium acetate buffer pH 5.0
Source text: HPLC of GAMG formed; double reciprocal plot on β-glucuronidase from P. purpurogenum Li-3 (PGUS)

K m: 0.41 mM
Compound: CC1(C)[C@@H](O[C@H]2O[C@H](C(=O)O)[C@@H](O)[C@H](O)[C@H]2O[C@@H]2O[C@H](C(=O)O)[C@@H](O)[C@H](O)[C@H]2O)CC[C@]2(C)[C@H]3C(=O)C=C4[C@@H]5C[C@@](C)(C(=O)O)CC[C@]5(C)CC[C@@]4(C)[C@]3(C)CC[C@@H]12 [GL, glycyrrhizin]

— publication PMC5624897, “Identification of isoliquiritigenin as an activator that stimulates the enzymatic production of glycyrrhetinic acid monoglucuronide” (Scientific Reports, 2017)
